Results as given in PubChem BioAssay (NCI).
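Grown in 96-well plates, cells were treated for 48 hours with each compound at five concentrations. Insufficient inhibition: endpoint recorded as highest concentration tested. TGI is the concentration that stops growth completely.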

Assays:
Test in all cases: inhibition of tumour cell growth, NCI panel, 48 h
[1] = system: SN12C renal
[2] = system: OVCAR-8 ovarian
[3] = system: SF-268 CNS
[4] = system: CAKI-1 renal
[5] = system: HOP-18 NSCLC
[6] = system: XF 498 CNS
[7] = system: EKVX NSCLC
[8] = system: NCI-H460 lung
[9] = system: HOP-92 NSCLC
[10] = system: RXF-631 renal
[11] = system: KM20L2 colon
[12] = system: SNB-75 CNS
[13] = system: NCI-H522 lung
[14] = system: SK-MEL-28 melanoma
[15] = system: M14 melanoma
[16] = system: RPMI-8226 leukemia
[17] = system: HCC-2998 colon
[18] = system: RXF 393 renal
[19] = system: ACHN renal
[20] = system: OVCAR-5 ovarian
[21] = system: CCRF-CEM leukemia
[22] = system: SK-OV-3 ovarian
[23] = system: UACC-257 melanoma
[24] = system: MOLT-4 leukemia
[25] = system: U251 CNS
[26] = system: K-562 leukemia
[27] = system: NCI-H23 lung
[28] = system: IGROV1 ovarian
[29] = system: HCT-15 colon
[30] = system: LXFL 529 NSCLC
[31] = system: OVCAR-4 ovarian
[32] = system: MALME-3M melanoma
[33] = system: SK-MEL-5 melanoma
[34] = system: LOX IMVI melanoma
[35] = system: SNB-19 CNS
[36] = system: HL-60(TB) leukemia
[37] = system: DMS 273 small cell lung
[38] = system: A498 renal
[39] = system: TK-10 renal
[40] = system: UO-31 renal
[41] = system: COLO 205 colon
[42] = system: SF-539 CNS
[43] = system: A549 NSCLC
[44] = system: KM12 colon
[45] = system: SK-MEL-2 melanoma
[46] = system: SW-620 colon
[47] = system: DLD-1 colon
[48] = system: M19-MEL melanoma
[49] = system: SF-295 CNS
[50] = system: UACC-62 melanoma
[51] = system: HT29 colon
[52] = system: 786-0 renal
[53] = system: OVCAR-3 ovarian
[54] = system: HOP-62 NSCLC
[55] = system: NCI-H226 lung
[56] = system: DMS 114 small cell lung
[57] = system: SNB-78 CNS
[58] = system: SR leukemia
[59] = system: HCT-116 colon

Measured: TGI

CN(CC(=O)O)S(=O)(=O)c1ccc(F)cc1
not listed: [54] | [55] | [56] | [57] | [58] | [59]
> 100 µM: all other assays above

Cc1ccccc1OCC(COC(=O)Nc1ccccc1)OC(=O)Nc1ccccc1 (configuration not stated)
38.3 µM: [12]
27.8 µM: [26]
15.4 µM: [42]
89.4 µM: [35]
79 µM: [57]
38.5 µM: [9]
86.6 µM: [5]
43.5 µM: [18]
55.9 µM: [34]
68.7 µM: [36]
not listed: [6] | [52]
> 100 µM: all other assays above

C/C(=N\NC(C)(C)C)c1sc(-c2nc(C)c(/C(C)=N/NC(C)(C)C)s2)nc1C
not listed: [6] | [8] | [20] | [39] | [44] | [45] | [54]
> 100 µM: all other assays above
